Results taken from patent publication US20070078100A1, “Methods of detecting poly(adp-ribose) polymerase and other nad+ utilizing enzymes” (THE BOARD OF TRUSTEES OF THE UNIVERSITY OF ILLINOI, priority 2003, published 2007).
Where two headings read alike, the source gives them in different places.

Tests used:
[1] = molecular target: T1, PARP-1 (Homo sapiens, UniProt P09874); assay: NAD+ quantitation (fluorescence) assay, determination of IC50 values for PARP inhibitors; type: biochemical
T1 construct: purchased Trevigen
T1 sequence (P09874 whole entry): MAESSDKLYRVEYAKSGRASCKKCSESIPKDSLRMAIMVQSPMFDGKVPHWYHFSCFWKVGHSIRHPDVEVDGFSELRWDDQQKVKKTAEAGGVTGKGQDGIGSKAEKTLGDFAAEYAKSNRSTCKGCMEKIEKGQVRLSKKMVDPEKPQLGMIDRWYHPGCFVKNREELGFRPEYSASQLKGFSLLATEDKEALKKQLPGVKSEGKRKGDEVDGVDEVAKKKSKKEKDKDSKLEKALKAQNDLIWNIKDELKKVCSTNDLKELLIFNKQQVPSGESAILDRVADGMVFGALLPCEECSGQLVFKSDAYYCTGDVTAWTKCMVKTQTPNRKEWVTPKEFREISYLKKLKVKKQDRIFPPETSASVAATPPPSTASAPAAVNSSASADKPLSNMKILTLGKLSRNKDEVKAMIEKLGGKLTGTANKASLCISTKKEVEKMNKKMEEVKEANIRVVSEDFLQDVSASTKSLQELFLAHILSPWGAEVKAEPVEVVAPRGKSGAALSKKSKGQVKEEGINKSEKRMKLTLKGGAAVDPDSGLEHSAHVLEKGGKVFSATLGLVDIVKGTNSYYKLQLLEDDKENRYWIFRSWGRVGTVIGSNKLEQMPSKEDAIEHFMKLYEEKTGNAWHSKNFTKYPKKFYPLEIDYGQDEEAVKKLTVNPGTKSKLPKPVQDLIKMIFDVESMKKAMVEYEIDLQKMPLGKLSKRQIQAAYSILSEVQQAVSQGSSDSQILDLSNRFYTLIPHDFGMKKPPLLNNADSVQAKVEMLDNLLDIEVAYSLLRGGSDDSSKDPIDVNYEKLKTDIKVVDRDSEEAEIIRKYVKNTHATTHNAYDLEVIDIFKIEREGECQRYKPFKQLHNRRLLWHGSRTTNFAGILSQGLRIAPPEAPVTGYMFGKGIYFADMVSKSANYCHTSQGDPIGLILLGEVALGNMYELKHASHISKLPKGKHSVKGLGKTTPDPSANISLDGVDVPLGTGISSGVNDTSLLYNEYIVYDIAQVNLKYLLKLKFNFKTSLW
Procedure: This assay was also applied to determine the IC50 values of the known PARP inhibitors. For these determinations, the inhibitors, at a variety of concentrations, were added to a 96-well plate containing NAD+ and nicked DNA. PARP-1 was then added, and the reaction was allowed to proceed for 15 min. At this point acetophenone/KOH was added, which serves to both quench the PARP-1 enzymatic activity and to begin the conversion of any remaining NAD+ to the fluorophore. After 10 min at 4° C. in the presence of acetophenone/KOH, a solution of formic acid was added and the mixture was incubated in a 110° C. oven for 5 minutes.
In addition, only very low levels of NAD+ were used in this assay (100 nM). […] However, NAD+ concentrations up to 100 μM can also be used, if one desires a direct correlation with other assay methods that typically use micromolar amounts of NAD+ substrate.
The reaction was initiated by adding 10 μL of PARP at a concentration of 10 μg/mL (in PARP assay buffer), bringing the final concentration to 2 μg/mL PARP, 10 μg/mL DNA, 100 nM NAD+ with varying concentrations of inhibitors in a total volume of 50 μL. The plate was incubated for 15 min at room temperature and the amount of NAD+ was then determined by the fluorescence method as described above for the calibration curve. The average value of control wells containing only NAD+ was set as 0% PARP activity, while the average value of control wells containing NAD+ and PARP (but no inhibitor) was set as 100% PARP activity. […] All data points in FIG. 8 were determined in quadruplicate.
Graphs were analyzed using Table Curve 2D. NAD+ standard curves were fitted with a least squares linear model and inhibitor curves were fitted with a logistic dose response curve.

[2] = molecular target: PARP (Homo sapiens, UniProt P09874); details: literature values, references in brackets; cited from earlier work
Sequence of PARP (P09874 whole entry): as above

[3] = 100 nM NAD+, 2 μg/mL PARP, 10 μg/mL DNA, 15 min at room temperature, 96-well plate, read-out: IC50 value

IC50 [1, 3] [nM]	Structure (SMILES)	IC50 [1] [nM]	IC50 [2] [nM]
305	O=c1[nH]c2ccccc2c2ccccc12 [6(5H)-phenanthridinons, 6(5H)-phenanthridinone]	–	–
–	O=C1NCCc2c(OCCCCN3CCCCC3)cccc21 [DPQ, 3,4-dihydro-5-[4-(1-piperidinyl)butoxy]-1 (2B)-isoquinolinone]	37	–
1440	NC(=O)c1ccccc1 [benzamide]	–	1300
